Columns and labels:
[1] = system: CD34+ cells isolated from donor peripheral blood; experiment: Enhancement of HSCs derived from non-mobilized peripheral blood with compounds of Formula I (Example 33); type: cell-based; conditions: normalized fold change days 2 to 7
Procedure: CD34+ cells were isolated from donor peripheral blood. Standard buffy coat separation using ficoll paque was performed. Cells were pelleted and incubated with unlabeled CD64 antibody. Cells then underwent negative depletion using biotinylated CD2, CD3, CD4, CD5, CD8, CD11b, CD14, CD16, CD19, CD20, CD45RA, CD56, CD235 (in some examples CD15, CD25 and other lineage specific antibodies may also be used). Cells which bind these antibodies are depleted using streptavidin beads. The enriched progenitor pool then undergoes cell sorting for CD34+.
Isolated CD34+ cells were incubated in an in vitro culture media of Alpha MEM without phenol red with 10% (v/v) heat inactivated fetal bovine serum (FBS). When testing compounds of Formula I, two internal controls were used: a positive control (+SF conditions) and a baseline control (i.e. basic conditions (“cytokines only”)). The media components and concentrations used for the compounds tested are described in [0563] Table 2. The culture also included an antibiotic solution that includes penicillin, streptomycin, and amphotericin B to avoid contamination. Controls were included because the amount of expansion in samples obtained varies from individual to individual.
Cultures were incubated at […] (controlled by nitrogen) and 5% CO2.
Small molecule components were added separately and fresh each time the media needs to be refreshed. Cytokines can be stored together. Media renewal should occur at least every few days.
On the days indicated one-half of the volume of the cell culture was removed for data analysis (flow cytometry using a BD FACS ARIA II). The culture volume was replenished with fresh media according to the conditions tested. The data reported accounts for the dilution factor introduced in this procedure.
Separate experiments were performed for each compound tested (Compound 1.001-1.023).
Table 3, below, summarizes the relative expansive effect of Compound 1.001 to 1.023 (sample compounds) at the indicated concentration. The data in Table 3 is reported as the relative expansive effect. The relative expansive effect is a normalized value of the fold changes shown in each of FIG. 1-FIG. 23. It is calculated as shown below: […]

[2] = system: CD34+ cells from cord blood; experiment: Expansion of cord blood CD34+ cells, seven-day culture (Example 35); type: cell-based, human; conditions: normalized fold change days 1 to 7
Procedure: CD34+ cells from cord blood were purchased from STEMCELL Technologies. Primary human CD34+ cells were isolated from cord blood samples using positive immunomagnetic separation techniques. Cells were thawed and gradually brought to room temperature. Samples were washed, then placed in overnight culture in StemSpan with 100 ng/ml each of FLT3L, TPO, SCF, and TL-6. Eighteen to twenty-four hours later (day 1), cells were counted and immunophenotyped (flow cytometry on an Invitrogen Attune N×T cytometer).
Approximately 1000 live cells were plated into each well of 96-well plates; exact cell numbers dispensed per well were quantified with flow cytometry for later calculations.
Media for testing compounds of Formula I was prepared using Alpha MEM without phenol red, 10% (v/v) heat inactivated fetal bovine serum. Culture conditions also included an antibiotic solution that includes penicillin, streptomycin, and amphotericin B to avoid contamination. Additional media components and concentrations used for the compounds tested are described in Table 5.
All incubations for this experiment took place at 3% oxygen (controlled by nitrogen) and 5% CO2. Following seven days of culture, cells from wells were collected and phenotypes were analyzed (flow cytometry on an Invitrogen Attune N×T cytometer).
Table 6 below, summarizes the relative expansive effect of the screened compounds at the indicated concentration. The data in Table 6 is reported as the relative expansive effect. The relative expansive effect is a normalized value of the fold changes shown in each of the figures. It is calculated as shown below: […]

CCOC1c2ccccc2-c2ccc(NC(=O)C(C)(C)C)cc21 (centres unmarked) [Compound 1.023, N-(9-ethoxy-9H-fluoren-2-yl)pivalamide]
CD90 effect (relative expansive effect on CD34+/CD133+/CD90+ cells) ([1]; sample compound 32 μM): ++ (0.2 ≤ x < 0.55)
CD133 effect (relative expansive effect on CD34+/CD133+ cells) ([1]; sample compound 32 μM): + (x < 0.2)
CD90 effect (relative expansive effect on CD34+/CD133+/CD90+ cells) ([2]; sample compound 8 μM): ++ (1.44 ≤ x < 1.8)
CD133 effect (relative expansive effect on CD34+/CD133+ cells) ([2]; sample compound 8 μM): ++ (1.44 ≤ x < 1.8)

CC(=O)Nc1ccc2c(c1)C(=O)c1cc(NC(C)=O)ccc1-2 [Compound 1.012, N,N′-(9-oxo-9H-fluorene-2,7-diyl)diacetamide]
CD90 effect (relative expansive effect on CD34+/CD133+/CD90+ cells) ([1]; sample compound 0.25 μM): ++ (0.2 ≤ x < 0.55)
CD133 effect (relative expansive effect on CD34+/CD133+ cells) ([1]; sample compound 0.25 μM): ++ (0.2 ≤ x < 0.55)

CC(C)(C)OC(=O)Nc1ccc2c(c1)C(=O)c1ccccc1-2 [Compound 1.003, tert-butyl (9-oxo-9H-fluoren-2-yl)carbamate]
CD90 effect (relative expansive effect on CD34+/CD133+/CD90+ cells) ([1]; sample compound 0.5 μM): ++ (0.2 ≤ x < 0.55)
CD133 effect (relative expansive effect on CD34+/CD133+ cells) ([1]; sample compound 0.5 μM): ++ (0.2 ≤ x < 0.55)

CC(C)(C)C(=O)Nc1ccc2c(c1)/C(=N\O)c1ccccc1-2 [Compound 1.028, N-(9-(hydroxyimino)-9H-fluoren-2-yl)pivalamide]
CD90 effect (relative expansive effect on CD34+/CD133+/CD90+ cells) ([2]; sample compound 2 μM): +++ (1.8 ≤ x < 2.16)
CD133 effect (relative expansive effect on CD34+/CD133+ cells) ([2]; sample compound 2 μM): +++ (1.8 ≤ x < 2.16)

CC(C)(C)C(=O)Nc1ccc2c(c1)C(=O)C1CCCCC21 (centres unmarked) [Compound 1.002, N-(9-oxo-2,3,4,4a,9,9a-hexahydro-1H-fluoren-7-yl)pivalamide]
CD90 effect (relative expansive effect on CD34+/CD133+/CD90+ cells) ([1]; sample compound 16 μM): ++ (0.2 ≤ x < 0.55)
CD133 effect (relative expansive effect on CD34+/CD133+ cells) ([1]; sample compound 16 μM): + (x < 0.2)

CN(C)C(=O)Nc1ccc2c(c1)C(O)c1ccccc1-2 (centres unmarked) [Compound 1.033, 3-(9-hydroxy-9H-fluoren-2-yl)-1,1-dimethylurea]
CD90 effect (relative expansive effect on CD34+/CD133+/CD90+ cells) ([2]; sample compound 10 μM): ++ (1.44 ≤ x < 1.8)
CD133 effect (relative expansive effect on CD34+/CD133+ cells) ([2]; sample compound 10 μM): +++ (1.8 ≤ x < 2.16)

CC(C)(C)C(=O)Oc1ccc2c(c1)C(O)c1ccccc1-2 (centres unmarked) [Compound 1.030, 9-hydroxy-9H-fluoren-2-yl pivalate]
CD90 effect (relative expansive effect on CD34+/CD133+/CD90+ cells) ([2]; sample compound 10 μM): +++ (1.8 ≤ x < 2.16)
CD133 effect (relative expansive effect on CD34+/CD133+ cells) ([2]; sample compound 10 μM): +++ (1.8 ≤ x < 2.16)

O=C(Nc1ccc2c(c1)C(O)c1ccccc1-2)C(Cl)(Cl)Cl (centres unmarked) [Compound 1.034, 2,2,2-trichloro-N-(9-hydroxy-9H-fluoren-2-yl)acetamide]
CD90 effect (relative expansive effect on CD34+/CD133+/CD90+ cells) ([2]; sample compound 10 μM): +++++ (2.52 ≤ x)
CD133 effect (relative expansive effect on CD34+/CD133+ cells) ([2]; sample compound 10 μM): +++++ (2.52 ≤ x)

NC(=O)Nc1ccc2c(c1)C(=O)c1cc(NC(N)=O)ccc1-2 [Compound 1.011, 1,1′-(9-oxo-9H-fluorene-2,7-diyl)diurea]
CD90 effect (relative expansive effect on CD34+/CD133+/CD90+ cells) ([1]; sample compound 0.125 μM): ++ (0.2 ≤ x < 0.55)
CD133 effect (relative expansive effect on CD34+/CD133+ cells) ([1]; sample compound 0.125 μM): + (x < 0.2)

O=C(Nc1ccc2c(c1)C(O)c1ccccc1-2)c1ccc(O)cc1 (centres unmarked) [Compound 1.032, 4-hydroxy-N-(9-hydroxy-9H-fluoren-2-yl)benzamide]
CD90 effect (relative expansive effect on CD34+/CD133+/CD90+ cells) ([2]; sample compound 10 μM): ++ (1.44 ≤ x < 1.8)
CD133 effect (relative expansive effect on CD34+/CD133+ cells) ([2]; sample compound 10 μM): ++ (1.44 ≤ x < 1.8)

CC(=O)OC1c2ccccc2-c2ccc(NC(=O)C(C)(C)C)cc21 (centres unmarked) [Compound 1.024, 2-pivalamide-9H-fluoren-9-yl acetate]
CD90 effect (relative expansive effect on CD34+/CD133+/CD90+ cells) ([2]; sample compound 8 μM): ++++ (2.16 ≤ x < 2.52)
CD133 effect (relative expansive effect on CD34+/CD133+ cells) ([2]; sample compound 8 μM): +++ (1.8 ≤ x < 2.16)

CC(=O)Oc1ccc2c(c1)C(=O)c1cc(OC(C)=O)ccc1-2 [Compound 1.027, 9-oxo-9H-fluorene-2,7-diyl diacetate]
CD90 effect (relative expansive effect on CD34+/CD133+/CD90+ cells) ([2]; sample compound 2 μM): ++ (1.44 ≤ x < 1.8)
CD133 effect (relative expansive effect on CD34+/CD133+ cells) ([2]; sample compound 2 μM): ++ (1.44 ≤ x < 1.8)

CC(C)(C)Nc1ccc2c(c1)C(=O)c1ccccc1-2 [Compound 1.004, 2-(tert-butylamino)-9H-fluoren-9-one]
CD90 effect (relative expansive effect on CD34+/CD133+/CD90+ cells) ([1]; sample compound 8 μM): +++ (0.55 ≤ x < 0.9)
CD133 effect (relative expansive effect on CD34+/CD133+ cells) ([1]; sample compound 8 μM): ++ (0.2 ≤ x < 0.55)

CC(C)(C)C(=O)Nc1ccc2c(c1)C(=O)c1ccc(O)cc1-2 [Compound 1.016, N-(6-hydroxy-9-oxo-9H-fluoren-2-yl)pivalamide]
CD90 effect (relative expansive effect on CD34+/CD133+/CD90+ cells) ([1]; sample compound 16 μM): ++++ (0.9 ≤ x < 1.25)
CD133 effect (relative expansive effect on CD34+/CD133+ cells) ([1]; sample compound 16 μM): ++ (0.2 ≤ x < 0.55)

O=C(Nc1ccc2c(c1)C(O)c1ccccc1-2)C1CCCCO1 (centres unmarked) [Compound 1.031, N-(9-hydroxy-9H-fluoren-2-yl)tetrahydro-2H-pyran-2-carboxamide]
CD90 effect (relative expansive effect on CD34+/CD133+/CD90+ cells) ([2]; sample compound 10 μM): ++ (1.44 ≤ x < 1.8)
CD133 effect (relative expansive effect on CD34+/CD133+ cells) ([2]; sample compound 10 μM): +++ (1.8 ≤ x < 2.16)

CC(=O)Nc1ccc2c(c1)C(O)c1ccccc1-2 (centres unmarked) [Compound 1.029, N-(9-hydroxy-9H-fluoren-2-yl)acetamide]
CD90 effect (relative expansive effect on CD34+/CD133+/CD90+ cells) ([2]; sample compound 8 μM): ++++ (2.16 ≤ x < 2.52)
CD133 effect (relative expansive effect on CD34+/CD133+ cells) ([2]; sample compound 8 μM): ++++ (2.16 ≤ x < 2.52)

O=C1c2ccccc2-c2ccccc21 [Compound 1.037]
CD90 effect (relative expansive effect on CD34+/CD133+/CD90+ cells) ([2]; sample compound 10 μM): ++ (1.44 ≤ x < 1.8)
CD133 effect (relative expansive effect on CD34+/CD133+ cells) ([2]; sample compound 10 μM): + (x < 1.44)

O=C1c2ccccc2-c2ccc(F)cc21 [Compound 1.020]
CD90 effect (relative expansive effect on CD34+/CD133+/CD90+ cells) ([1]; sample compound 16 μM): ++ (0.2 ≤ x < 0.55)
CD133 effect (relative expansive effect on CD34+/CD133+ cells) ([1]; sample compound 16 μM): ++ (0.2 ≤ x < 0.55)

CNc1ccc2c(c1)C(O)c1ccccc1-2 (centres unmarked) [Compound 1.018, 2-(methylamino)-9H-fluoren-9-ol]
CD90 effect (relative expansive effect on CD34+/CD133+/CD90+ cells) ([1]; sample compound 4 μM): ++ (0.2 ≤ x < 0.55)
CD133 effect (relative expansive effect on CD34+/CD133+ cells) ([1]; sample compound 4 μM): + (x < 0.2)

CC(C)(C)C(=O)Nc1ccc2c(c1)C(C#N)c1ccccc1-2 (centres unmarked) [Compound 1.026, N-(9-cyano-9H-fluoren-2-yl)pivalamide]
CD90 effect (relative expansive effect on CD34+/CD133+/CD90+ cells) ([2]; sample compound 2 μM): ++ (1.44 ≤ x < 1.8)
CD133 effect (relative expansive effect on CD34+/CD133+ cells) ([2]; sample compound 2 μM): ++ (1.44 ≤ x < 1.8)

O=C1c2ccccc2-c2ccc([N+](=O)[O-])cc21 [Compound 1.036]
CD90 effect (relative expansive effect on CD34+/CD133+/CD90+ cells) ([2]; sample compound 10 μM): +++ (1.8 ≤ x < 2.16)
CD133 effect (relative expansive effect on CD34+/CD133+ cells) ([2]; sample compound 10 μM): ++ (1.44 ≤ x < 1.8)

CC(C)(C)C(=O)Nc1ccc2c(c1)C(=O)C1CCCC21 (centres unmarked) [Compound 1.001, N-(8-oxo-1,2,3,3a,8,8a-hexahydrocyclopenta[a]inden-6-yl)pivalamide]
CD90 effect (relative expansive effect on CD34+/CD133+/CD90+ cells) ([1]; sample compound 0.5 μM): ++ (0.2 ≤ x < 0.55)
CD133 effect (relative expansive effect on CD34+/CD133+ cells) ([1]; sample compound 0.5 μM): + (x < 0.2)

Nc1ccc2c(c1)C(=O)c1ccccc1-2 [Compound 1.035]
CD90 effect (relative expansive effect on CD34+/CD133+/CD90+ cells) ([2]; sample compound 10 μM): +++ (1.8 ≤ x < 2.16)
CD133 effect (relative expansive effect on CD34+/CD133+ cells) ([2]; sample compound 10 μM): +++ (1.8 ≤ x < 2.16)

COC1c2ccccc2-c2ccc(NC(=O)C(C)(C)C)cc21 (centres unmarked) [Compound 1.025, N-(9-methoxy-9H-fluoren-2-yl)pivalamide]
CD90 effect (relative expansive effect on CD34+/CD133+/CD90+ cells) ([2]; sample compound 8 μM): ++++ (2.16 ≤ x < 2.52)
CD133 effect (relative expansive effect on CD34+/CD133+ cells) ([2]; sample compound 8 μM): +++ (1.8 ≤ x < 2.16)

Reference: patent publication US20220315895A1, “METHODS OF MAKING OLIGOPOTENT AND UNIPOTENT PRECURSORS” (Transfusion Health, LLC, priority 2019, published 2022)
